1 molecule from patent publication US5585277A, “Screening method for identifying ligands for target proteins” (Scriptgen Pharmaceuticals, Inc., priority 1995, dated 1996) can be followed below.

Test [1] deals with Dihydrofolate Reductase (DHFR). As to the kind of experiment: Protection of DHFR from proteolytic digestion by Proteinase K, undigested DHFR quantified by ELISA. Format: binding. As to conditions: same methods as Example 1, separate experiments, 54° C., 5 minutes. On the procedure: (§1) Samples were removed and undigested DHFR was quantified by ELISA as follows:
(§2) (a) Protease incubations were diluted 50 fold with Tris-buffered saline (TBS);
(§3) (b) 50 μl diluted samples were transferred to the wells of an ELISA plate and incubated 60 minutes at room temperature;
(§4) (e) plate wells were washed as in (c) above;
(§5) (g) plate wells were washed as in (c); and […]
Background: An ELISA detects its analyte on a solid surface through an enzyme-linked reagent.

In test [2] the test system is Dihydrofolate Reductase (DHFR). As to the kind of experiment: Protection of DHFR from Proteinase K digestion in the presence of a mixture of all 20 common amino acids, ELISA. Format: binding. As to conditions: 10^-5M ligand, 10^-5M of all 20 common amino acids, DHFR 2.1 μg/ml, Proteinase K 80 μg/ml, 54° C., 5 minutes. On the procedure: The following were combined and incubated at 54° C. for 5 minutes: DHFR (2.1 μg/ml), Proteinase K (80μg/ml), 0.1M Tris-HCl [pH 7.5], 10^-5M of all 20 common amino acids and either 0 or 10^-5M ligand.
as §1, §2, §3, §4, §5

Take `NC(=O)C1=CN([C@@H]2O[C@H](COP(=O)(O)OP(=O)(O)OC[C@H]3O[C@@H](n4cnc5c(N)ncnc54)[C@H](OP(=O)(O)O)[C@@H]3O)[C@@H](O)[C@H]2O)C=CC1` [NADPH]: the “concentration at which ligand inhibits proteolysis of DHFR” value in test [1] is given as ≥ 10^-5. Moreover, the “protection of DHFR from digestion relative to the absence of ligands” value in test [2] was “Protects Dihydrofolate Reductase (DHFR) From Proteolytic Digestion”.
